In patent publication US20230148450A9, “BICYCLIC HETEROARYL COMPOUNDS AND USES THEREOF” (Revolution Medicines, Inc., priority 2019, published 2023):
Structures can show the parent of a compound that is named as a salt. Where two headings read alike, the source gives them in different places.

Columns and labels:
[1] = biological target: T1, SOS1 catalytic domain (residues 564-1049) (Homo sapiens, UniProt Q07889); experiment: Binding affinity to SOS1 using Surface Plasmon Resonance (SPR); details: avi-tagged SOS1 catalytic domain immobilized on sensor chip; read-out: SOS1 SPR Equilibrium Kd
T1 construct: SOS1 catalytic domain (residues 564-1049) immobilized on a sensor chip
T1 sequence (Q07889 564-1049): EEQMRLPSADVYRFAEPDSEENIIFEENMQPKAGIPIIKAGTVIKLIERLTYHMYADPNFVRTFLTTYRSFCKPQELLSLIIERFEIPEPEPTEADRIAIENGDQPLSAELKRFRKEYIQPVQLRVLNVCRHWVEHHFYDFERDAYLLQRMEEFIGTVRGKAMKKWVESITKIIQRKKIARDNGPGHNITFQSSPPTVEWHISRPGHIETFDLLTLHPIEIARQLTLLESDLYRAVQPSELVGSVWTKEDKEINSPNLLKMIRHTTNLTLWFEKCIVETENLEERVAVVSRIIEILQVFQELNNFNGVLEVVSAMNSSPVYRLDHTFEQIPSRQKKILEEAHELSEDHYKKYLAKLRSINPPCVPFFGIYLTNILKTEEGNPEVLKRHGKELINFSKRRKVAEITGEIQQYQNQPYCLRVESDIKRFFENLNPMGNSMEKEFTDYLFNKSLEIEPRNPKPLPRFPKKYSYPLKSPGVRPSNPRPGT
Summary of the method: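 Avi-tagged human SOS1 catalytic domain (564-1049) captured on streptavidin chip (~6000 RU); compounds flowed at 50 μL/min, 5 μM to 4.9 nM in ten 2-fold steps, in HEPES/NaCl/P20 buffer with 2% DMSO, double-referenced. Kd from end-of-association response plotted versus concentration.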

[2] = test system: cellular pERK in PC-9 cells (EGFR Ex19Del); experiment: Potency Assay: pERK; format: cell-based; details: Homo sapiens, read-out: SOS1 pERK IC50
Summary of the method: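 Cells plated the day before and treated 1 h at 37 °C with 10-point 3-fold dilutions in duplicate, top 10 μM. pERK1/2 in lysates read by AlphaLISA SureFire Ultra. IC50 from 4-parameter sigmoidal fit of signal vs log concentration.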

[3] = biological target: T2, SOS1 nucleotide exchange of KRAS (catalytic domain of SOS1, residues 564-1049; wild-type KRAS) (Homo sapiens, UniProt Q07889); experiment: Mode of Action Assay: Inhibition of SOS1 Nucleotide Exchange Activity (TR-FRET); format: biochemical; details: TR-FRET signal
T2 construct: tagless catalytic domain of SOS1 (residues 564-1049)
T2 sequence (Q07889 564-1049): T1 sequence (Q07889 564-1049)
Summary of the method: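 SOS1 catalytic domain (564-1049, 100 nM as diluted) preincubated 20 min with compounds (100 μM–1.7 nM, 11-point 3-fold) in HEPES pH 7.5 buffer with MgCl2. Then mixed with avi-KRAS(1-169), Streptavidin-Tb and EDA-GTP-DY-647P1 for 30 min at room temperature. TR-FRET normalized to DMSO and positive control, triplicates; IC50 by four-parameter logistic fit.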

[4] = PC-9 cells (EGFR Ex19Del), 1 hour incubation, AlphaLISA p-ERK1/2

| SMILES | Kd [1] [nM] | IC50 [2, 4] [nM] | IC50 [3] [nM] | IC50 ([2]; PC-9, 1 h) [nM] |
| --- | --- | --- | --- | --- |
| C[C@@H](Nc1nc(Cl)nc2[nH]c(C(=O)N3CCOCC3)nc12)c1cccc(C(F)(F)CO)c1 [Example 73, (R)-(2-chloro-6-((1-(3-(1,1-difluoro-2-hydroxyethyl)phenyl)ethyl)amino)-9H-purin-8-yl)(morpholino)methanone] | ≤ 400 | > 1000 | < 1000 |  |
| C[C@@H](Nc1nc(Cl)cn2nc(C(=O)N3CCOCC3)cc12)c1cc(N)cc(C(F)(F)F)c1 [Example 74] | > 400 | < 1000 | > 1000 |  |
| Cc1cn2nc(C(=O)N3CCN(C4COC4)CC3)cc2c(N[C@H](C)c2cc(N)cc(C(F)(F)F)c2)n1 [Example 76] | ≤ 400 | < 1000 | < 1000 |  |
| Cc1cn2nc(C(=O)N3CC4CC3CN4C)cc2c(N[C@H](C)c2cc(N)cc(C(F)(F)F)c2)n1 (stereo partly drawn) [Example 81] | ≤ 400 | < 1000 | < 1000 |  |
| Cc1cn2nc(C(=O)N3CCN4CCC4C3)cc2c(N[C@H](C)c2cc(N)cc(C(F)(F)F)c2)n1 (stereo partly drawn) [Example 82] | ≤ 400 | < 1000 | < 1000 |  |
| C[C@@H](Nc1ncnc2sc(C(=O)N3CCOCC3)cc12)c1cccc(C(F)(F)CO)c1 [Example 83, (R)-(4-((1-(3-(1,1-difluoro-2-hydroxyethyl)phenyl)ethyl)amino)thieno[2,3-d]pyrimidin-6-yl)(morpholino)methanone] | ≤ 400 | < 1000 | < 1000 |  |
| C[C@@H](Nc1ncnc2sc(C(=O)N3CCN(C4COC4)CC3)cc12)c1cccc(C(F)F)c1F [Example 84, (R)-(4-((1-(3-(difluoromethyl)-2-fluorophenyl)ethyl)amino)thieno[2,3-d]pyrimidin-6-yl)(4-(oxetan-3-yl)piperazin-1-yl)methanone] | ≤ 400 | < 1000 | < 1000 |  |
| C[C@@H](Nc1nccc2nc(C(=O)N3CCNCC3)cn12)c1cccc(C(F)F)c1F [Example 85, [5-[[(1R)-1-[3-(difluoromethyl)-2-fluoro-phenyl]ethyl]amino]imidazo[1,2-c]pyrimidin-2-yl]-piperazin-1-yl-methanone hydrochloride] | ≤ 400 |  | < 1000 | < 1000 |
| C[C@@H](Nc1nccc2nc(C(=O)N3CCN(C4COC4)CC3)cn12)c1cccc(C(F)F)c1F [Example 87] | ≤ 400 | > 1000 | < 1000 |  |
| C[C@@H](Nc1nccc2nc(C(=O)N3CC4(C3)CN(C3COC3)C4)cn12)c1cccc(C(F)F)c1F [Example 88] | ≤ 400 | < 1000 | < 1000 |  |
| CC(=O)N1CC2(C1)CN(C(=O)c1cn3c(N[C@H](C)c4cccc(C(F)F)c4F)nccc3n1)C2 [Example 89] | ≤ 400 | < 1000 | < 1000 |  |
| C[C@@H](Nc1nccc2nc(C(=O)N3CC4(C3)CN(C3CC3)C4)cn12)c1cccc(C(F)F)c1F [Example 90] | ≤ 400 | < 1000 | < 1000 |  |
| C[C@@H](Nc1nccc2nc(C(=O)N3CC4(CN(CC(F)(F)F)C4)C3)cn12)c1cccc(C(F)F)c1F [Example 91] | ≤ 400 | < 1000 | < 1000 |  |
| C[C@@H](Nc1nc(Cl)nn2cc(C(=O)N3CC4(CN(C)C4)C3)cc12)c1cccc(C(F)(F)F)c1 [Example 97] | ≤ 400 | < 1000 | < 1000 |  |
| C[C@@H](Nc1nc(Cl)nn2cc(C(=O)N3CC4(CN(C)C4)C3)cc12)c1cccc(C(F)F)c1F [Example 99] | ≤ 400 | < 1000 | < 1000 |  |
| C[C@@H](Nc1nc(Cl)nn2cc(C(=O)N3CC4(COC4)C3)cc12)c1cccc(C(F)F)c1F [Example 100] | ≤ 400 | < 1000 | < 1000 |  |
| C[C@@H](Nc1nc(Cl)nc2c1nc(C(=O)N1CCOCC1)n2C)c1cccc(C(F)(F)CO)c1 [Example 103, (R)-(2-chloro-6-((1-(3-(1,1-difluoro-2-hydroxyethyl)phenyl)ethyl)amino)-9-methyl-9H-purin-8-yl)(morpholino)methanone] | > 400 | < 1000 | < 1000 |  |
